Test results from PMC3140774 (Journal of Medicinal Chemistry, 2011).
pIC50: −log10 of the molar value.

Columns and labels:
[1] = system: bloodstream form T. brucei (strain 427); test: Trypanocidal assay, growth inhibition of cultured bloodstream-form T. brucei; type: cell-based, Trypanosoma brucei; conditions: for times higher activity than C-methyl analogue 7c / times higher activity than the parent 7a: free base form
[2] = system: procyclic (insect form) T. brucei; test: Activity against cultured procyclic; type: cell-based, Trypanosoma brucei
[3] = system: T. cruzi epimastigotes (CL Brener clone); test: Growth inhibition of T. cruzi epimastigotes; type: cell-based, Trypanosoma cruzi; conditions: free base
[4] = system: Bloodstream-form T. brucei; conditions: cited from earlier work

CN1CC(=O)N(CC(=O)NO)C(=O)C12CCCCCC2 [10b]
times more potent against T. brucei than 10a ([1]; free base, bloodstream form): 6.6 fold

O=C(CN1C(=O)C(Cc2ccccc2)NC2(C1=O)C1CC3CC(C1)CC2C3)NO (stereo not shown) [compound 8]
times higher activity than C-methyl analogue 7c ([1]; bloodstream form): 8–20 fold
times higher activity than the parent 7a ([1]; bloodstream form): 5.3–13 fold
times more resistant: procyclic versus bloodstream-form T. brucei [2]: 10–50 fold

O=C(CN1C(=O)[C@H](Cc2ccccc2)NC2(CCCCCCC2)C1=O)NO [9d]
fold more potent against T. brucei than 9a ([1]; free base, bloodstream form): 10 fold
times more trypanocidal activity than C-methyl counterpart 9c ([1]; free base, bloodstream form): 4.3 fold

O=C(CN1C(=O)CNC2(CCCCCC2)C1=O)NO [10a]
fold decrease in activity against T. brucei compared with 7a ([1]; free base, bloodstream form): 21 fold

O=C(CN1C(=O)[C@H](Cc2ccccc2)NC2(C1=O)C1CC3CC(C1)CC2C3)NO (stereo partly shown) [7d]
fold lower potency of hydrochloride versus free base ([1]; bloodstream-form T. brucei): 6.2 fold
times higher activity than C-methyl analogue 7c ([1]; bloodstream form): 8–20 fold
times higher activity than the parent 7a ([1]; bloodstream form): 5.3–13 fold
factor less potent than 7e (R-enantiomer) ([1]; tested as hydrochloride salts): 4.6 fold
factor less potent than 8 (racemic mixture) ([1]; tested as hydrochloride salts): 2.3 fold
fold more potent against T. cruzi than 7a [3]: 26 fold
times more resistant: procyclic versus bloodstream-form T. brucei [2]: 10–50 fold

C[C@@H]1NC2(CCCCCCC2)C(=O)N(CC(=O)NO)C1=O [9c]
fold more potent against T. brucei than 9a ([1]; free base, bloodstream form): 2.4 fold

C[C@@H]1NC2(C(=O)N(CC(=O)NO)C1=O)C1CC3CC(C1)CC2C3 (stereo partly shown) [7c]
fold lower potency of hydrochloride versus free base ([1]; bloodstream-form T. brucei): 3 fold
fold decrease in activity against T. brucei compared with 7a ([1]; free base, bloodstream form): 1.5 fold

CN1CC(=O)N(CC(=O)NO)C(=O)C12C1CC3CC(C1)CC2C3 (stereo not shown) [7b]
fold lower potency of hydrochloride versus free base ([1]; bloodstream-form T. brucei): 1.8 fold
fold decrease in activity against T. brucei compared with 7a ([1]; free base, bloodstream form): 2.1 fold
fold more potent against T. cruzi than 7a [3]: 1.5 fold

O=C(CN1C(=O)CNC2(CCCCCCC2)C1=O)NO [9a]
fold decrease in activity against T. brucei compared with 7a ([1]; free base, bloodstream form): 3.3 fold

O=C1ON=C2C3CC4CC(C3)CC12C4 [compound 3]
potency fold greater than amantadine ([4]; T. brucei in vitro): at least 45 fold

O=C(CN1C(=O)[C@@H](Cc2ccccc2)NC2(C1=O)C1CC3CC(C1)CC2C3)NO (stereo partly shown) [7e]
times higher activity than C-methyl analogue 7c ([1]; bloodstream form): 8–20 fold
times higher activity than the parent 7a ([1]; bloodstream form): 5.3–13 fold
times more resistant: procyclic versus bloodstream-form T. brucei [2]: 10–50 fold

CC(N)C12CC3CC(CC(C3)C1)C2 (stereo not shown) [rimantadine]
pIC50 ([4]; read-out: IC50 bloodstream-form T. brucei, in vitro): 5.15

O=C1CNC2(C(=O)N1)C1CC3CC(C1)CC2C3 (stereo not shown) [6a]
inhibition of parasite growth, preliminary screen ([1]; 5 μg mL^–1, bloodstream-form T. brucei): inactive

CN1CC(=O)N(CC(=O)NO)C(=O)C12CCCCCCC2 [9b]
fold more potent against T. brucei than 9a ([1]; free base, bloodstream form): 1.9 fold
